Reference: patent publication US9884886B2, “Disulfide masked prodrug compositions and methods” (Merck Sharp & Dohme Corp., priority 2012, dated 2018)

Assay: Exposure of DTE- or DTT-based dimers to glutathione, release of dimer phosphodiester
Format: physicochemical
Experimental: The half life of prodrug-dimer 5-2 was dependent on the character and excess of the reducing reagent (500:1/Prodrug:GSH), in this instance approximately 4 hours. The kinetics of the release was also dependent on pH and 1M TRIS hydrochloride buffers of pH values varied between 5.0 and 7.8 were used.

half-life (1M TRIS hydrochloride buffer with glutathione (GSH), pH 7.3, 500:1/Prodrug:GSH, pH 7.30, 1M TRIS hydrochloride buffer): ~4 h
release at acidic conditions (buffers of pH between 5.0 and 7.8): considerably slower
SMILES: C#CCO[C@@H]1CSSC[C@H]1OP(=O)(OC[C@H]1O[C@@H](n2ccc(=O)[nH]c2=O)[C@H](OC)[C@@H]1OC(=O)CCC(C)=O)O[C@H]1[C@@H](OC)[C@H](n2ccc(=O)[nH]c2=O)O[C@@H]1COC(c1ccccc1)(c1ccc(OC)cc1)c1ccc(OC)cc1 (stereo partly drawn) [Compound 5-2, (2R,3R,4R,5R)-2-{[({[(2R,3R,4R,5R)-2-{[bis(4-methoxyphenyl)(phenyl)methoxy]methyl}-5-(2,4-dioxo-3,4-dihydropyrimidin-1(2H)-yl)-4-methoxytetrahydrofuran-3-yl]oxy}{[(4S,5S)-5-(prop-2-yn-1-yloxy)-1,2-dithian-4-yl]oxy}phosphoryl)oxy]methyl}-5-(2,4-dioxo-3,4-dihydropyrimidin-1(2H)-yl)-4-methoxytetrahydrofuran-3-yl 4-oxopentanoate]
